Measurements taken from patent US11155580B2, “Modified proteins and methods of use thereof” (YALE UNIVERSITY, priority 2013, dated 2021).
“Also recorded” adds a separate entry of the source. Where no end group is shown, it is not given here. fluorescein = fluorescein label; rhodamine = not defined here; Rhod = not defined here

Assays:
[1] = test system: HeLa cells; assay: Colocalization of rhodamine and fluorescein labeled miniature proteins and peptides; assay type: cell-based; conditions: 1 μM each, 30 min, 37° C.
Protocol: HeLa cells were treated with a mixture of rhodamine—(indicated by the superscript R) and fluorescein—(indicated by the superscript F)—labeled miniature protein or peptide (1 μM each) for 30 min at 37° C., washed, and then imaged using confocal microscopy. […] The remaining molecules show high fluorescence, and molecules sharing the same sequence (but different labels) show high degrees of overlap, with R>0.68. The amino acid sequence of Arg8 is provided in SEQ ID NO:68.
Colocalization between rhodamine and fluorescein labeled miniature proteins and peptides, or between rhodamine labeled miniature proteins and markers of endocytosis was completed using confocal microscopy. […] Alexafluor-488-transferrin was detected using a 488 nm laser and a 520 nm long pass filter; tetraethylrhodamine and Alexafluor-546-transferrin were detected using a 546 nm laser line and a 580 nm long pass filter, Hoescht 33342 was detected using a 405 nm laser line and a 450 nm long pass filter. […] The fraction of rhodamine signal overlapping with EGFP signal (R E G) was calculated using Mander's coefficient and automatic thresholding. […]

[2] = test system: U2OS(GIGI) cells; assay: GIGI in lysates, stably transfected U2OS(GIGI) cells; assay type: cell-based
From the text: RFUs are expressed±standard deviation (Excel). The maximum induction level is defined as RFUmax. Data were processed using Kaleidagraph and GraphPad Prism software. RFU=([I530]/[I580])−([I′530]/[I′580]) (1)
Y=Ymin+(Ymax−Ymin)/(1+10^logEC50-X) (2)

[3] = test system: HeLa cells transfected with GR-GFP; assay: GR-GFP translocation assay (cytosolic access of Dex-labeled molecules); assay type: cell-based; conditions: for effect of bafilomycin on TR: 200 nM bafilomycin pretreatment 1 h; for effect of bafilomycin on TR / effect of EIPA on TR / effect of dynasore on TR / effect of methyl-β-cyclodextrin (MβCD) on TR: then 1 μM; for translocation ratio (TR) / effect of EIPA on TR / effect of dynasore on TR / effect of methyl-β-cyclodextrin (MβCD) on TR: 30 min; for translocation ratio (TR): HeLa cells expressing GR-GFP; for effect of EIPA on TR: 50 μM EIPA pretreatment 30 min; for effect of dynasore on TR: 80 μM dynasore pretreatment 30 min; for effect of methyl-β-cyclodextrin (MβCD) on TR: 5 mM MβCD pretreatment 30 min
Protocol: HeLa cells transfected with pK7-GR-GFP were plated in Matrical plates as described above. To label nuclei, the media was replaced with HKR buffer containing 300 nM Hoescht and the cells incubated for 30 min at 37° C.
Cells were then analyzed as described above.
HeLa cells transfected with pK7-GR-GFP for 24-36 hr were plated (10^4/well in 200 μL) the day prior to experiments in 96 well glass bottom plates (Matrical). The media was replaced with HKR buffer containing 300 nM Hoescht and the cells incubated for 30 min at 37° C. […] The cells were incubated for a further 30 min at 37° C. before epifluorescence imaging using a Zeiss Axiovert 200M microscope fitted with a mRM digital camera, a 63×1.3NA PlanApo objective and an EXFO-Excite illumination source.
Uptake was allowed to proceed for an additional 30 min at 37° C. before analysis by epifluorescence images as described elsewhere herein.
The image analysis algorithm used by CellProfiler is customizable and contained within a ‘Pipeline’ that describes a series of image manipulation and evaluation steps, such as reading the image, adjusting the intensity, and identifying objects. Each step has several options. […] Using the image of Hoescht fluorescence and Otsu's method of automatic thresholding, nuclei were identified and segmented using 3 class thresholding. The middle class was assigned to background. Closely approximated objects were separated using ‘Laplacian of Gaussian’ modeling, and touching nuclei were divided using the ‘shape’ option. Nuclear regions were expanded by 2 μm to generate an enlarged region. The nuclear region was subtracted from enlarged region to generate a ring surrounding the nucleus (surround). […] The ratio of the median intensities of the nuclear and surrounding region of the GFP or mCherry (as appropriate) image were collected for every cell examined. Those cells falling below a threshold of intensity (10% of the maximum intensity of the image) were discarded as ‘untransfected’. Typically, 20-60 transfected cells from 15-30 images were examined for each experimental condition.

[4] = test system: HeLa cells transfected with pGR-mCherry and Rab5-GFP or Rab5Q79L-GFP; assay: GR-mCherry translocation in cells expressing Rab5-GFP or Rab5Q79L-GFP; assay type: cell-based; conditions: for effect of Rab5Q79L on ability to reach the cytoplasm / TR: overexpression of Rab5Q79L-GFP
Protocol: Cotransfected cells expressing Rab-GFP fusions and pGR-mCherry were identified via their characteristic pattern of green and red fluorescence. The translocation ratio was determined using median values of mCherry fluorescence within the nucleus and surrounding region using CellProfiler.
HeLa cells transfected for 24-36 hr with pGR-mCherry and either Rab5-GFP or Rab5Q79L-GFP were plated (10^4/well in […]) the day prior to experiments in 96 well glass bottom plates (Matrical). The cells were washed with HKR buffer and the nuclei labeled using Hoescht as above. […] The cells were incubated for a further 30 min at 37° C. before imaging. Cells that had been cotransfected with EGFP fusions were identified via their characteristic pattern of green and red fluorescence. To evaluate the extent of GR activation, epifluorescence images were obtained as described above, except the fluorescence of pGR-mCherry was also visualized using Zeiss Filter Set #43 (ex BP 545/25 nm, FT 570, em BP 605/70 nm).
The image analysis algorithm used by CellProfiler is customizable and contained within a ‘Pipeline’ that describes a series of image manipulation and evaluation steps, such as reading the image, adjusting the intensity, and identifying objects. Each step has several options. […] Using the image of Hoescht fluorescence and Otsu's method of automatic thresholding, nuclei were identified and segmented using 3 class thresholding. The middle class was assigned to background. Closely approximated objects were separated using ‘Laplacian of Gaussian’ modeling, and touching nuclei were divided using the ‘shape’ option. Nuclear regions were expanded by 2 μm to generate an enlarged region. The nuclear region was subtracted from enlarged region to generate a ring surrounding the nucleus (surround). The diameter of the surrounding region was chosen to be 2 μm larger than the nucleus, within the range (1-3 μm) used by previously reported high content screens (Ding et al., 1998, J Biol Chem. 273:28897-28905; Peeraniet al., 2007, EMBO J. 26:4744-4755). The ratio of the median intensities of the nuclear and surrounding region of the GFP or mCherry (as appropriate) image were collected for every cell examined. Those cells falling below a threshold of intensity (10% of the maximum intensity of the image) were discarded as ‘untransfected’. Typically, 20-60 transfected cells from 15-30 images were examined for each experimental condition.

[5] = test system: Saos-2(GIGT) cells; assay: GIGT high-content imaging in stably transfected Saos-2(GIGT) cells; assay type: cell-based, human
Protocol: Saos2(GIGT) cells were plated onto 384-well plates (2,500 cells/well) in 40 μL of full McCoy's 5A and allowed to adhere overnight. […] Following treatment, cells were fixed with 4% paraformaldehyde for 20 min at room temperature and washed with PBS. […] Translocation ratios were determined using Acapella high content imaging and analysis software, with a script that processed the images in a manner similar to the CellProfiler pipeline described in the Supporting Information. Each data point represents 30-60 images containing over 100 cells.

[6] = test system: HeLa cells; assay: Colocalization with Alexa-488-transferrin (Tf488), live cell confocal microscopy; assay type: cell-based; conditions: 1 μM, 30 min
Protocol: To examine the colocalization of rhodamine labeled miniature proteins or peptides with Alexa-488-transferrin (Tf488), HeLa cells were plated (200 μl, 10^4 cells/well, 96 well glass bottom plates, Matrical) the day prior to experiments. The media was replaced with 150 μL Hepes-Krebs-Ringer's (HKR) buffer (140 mM NaCl, 2 mM KCl, 1 mM CaCl2, 1 mM MgCl2, 10 mM Hepes pH 7.4) containing 1 μM miniature protein or 25 nM Alexa-488-transferrin (Molecular Probes) and the cells incubated at 37° C. for 30 min. The cells were then rinsed twice with 200 μL, HKR buffer and nuclei were labeled by overlaying 200 μL HKR containing 300 nM Hoechst 33342 (Molecular Probes Cat. # H3570) for 5 minutes. Images of cells were acquired using a PerkinElmer LiveView spinning disk confocal microscope fitted with a 60×1.2 NA objective. Colocalization with Rab-GFP fusions was examined in an analogous way using HeLa cells transfected with the appropriate expression plasmid.
Colocalization between rhodamine and fluorescein labeled miniature proteins and peptides, or between rhodamine labeled miniature proteins and markers of endocytosis was completed using confocal microscopy. Live cell confocal microscopy was conducted using a PerkinElmer LiveView spinning disk confocal microscope fitted with heated microscope enclosure (maintained at 37° C.), a 60×1.2 NA objective, laser illumination, a Nipkow CSU-1× spinning disk, and a Hammamatsu CS9100 EMCCD camera operated using Velocity software. Alexafluor-488-transferrin was detected using a 488 nm laser and a 520 nm long pass filter; tetraethylrhodamine and Alexafluor-546-transferrin were detected using a 546 nm laser line and a 580 nm long pass filter, Hoescht 33342 was detected using a 405 nm laser line and a 450 nm long pass filter. Images were processed for presentation by using the ‘subtract background’ option and linear contrast adjustments in Image J. All adjustments were applied uniformly to the entire image. Colocalization analysis was performed using the JACOP plugin (Bolte and Cordelières, 2006), available on the ImageJ website. The fraction of rhodamine signal overlapping with EGFP signal (R E G) was calculated using Mander's coefficient and automatic thresholding. Pearson's correlation coefficient (R) was also obtained using the JACOP plugin.

[7] = test system: HeLa cells; assay: HPLC analysis of cytosolic extracts prepared with streptolysin O; assay type: cell-based; conditions: HeLa cells treated with rhodamine labeled molecule
Protocol: To generate cytosolic extracts, HeLa cells were treated with streptolysin O (SLO), a well characterized bacterial toxin that creates pores in the plasma membranes of target cells (Walev et al., 2002, FASEB 16:237-239). […] Moreover, when the toxin is added to cultured cells at 4° C. and washed with PBS before raising the temperature to 37° C., pores are created only in the plasma membrane and the release of ER, golgi, or endolysosomal contents are avoided (Androlewicz et al., 1993, Proc Natl Acad Sci USA 90:9130-9134).
First, selective release of the cytoplasmic contents of HeLa cells using the published procedures was verified. HeLa cells were treated with 20 μg/mL SLO in PBS containing 5 mM DTT (20 min, 4° C.), washed (three PBS washes, 150 μL each), resuspended in PBS, and incubated at 37° C. for 15 min, after which 1.5 μM propidium iodide (PI), a marker of permeabilized cell membranes, was added.

[8] = molecular target: cathepsin B (Homo sapiens, UniProt P07858); assay: Resistance to acid proteases: cathepsin B; assay type: in vitro ADME; conditions: 50 pmol, 30 min, 37° C., pH 5
Protocol: 50 pmol aPPR, 5.2R, 5.3R, ZF5.3R, TatR (SEQ ID NO:67), or Arg8R (SEQ ID NO:68) were incubated with 5 pg cathepsin B, D, or L for 30 min at 37° C. in 10 μL of 20 mM sodium phosphate buffer (pH 5) containing 150 mM NaCl. At the end of the incubation, the reaction was stopped by adding 40 μL of a solution containing a 84:15:1 ratio of water:EtOH:TFA before analysis by HPLC.

Substance | cell fluorescence [1] | effect of bafilomycin on TR [3] | translocation ratio (TR) ([3]; 1 μM) | effect of EIPA on TR [3] | effect of dynasore on TR [3] | effect of methyl-β-cyclodextrin (MβCD) on TR [3] | effect of Rab5Q79L on ability to reach the cytoplasm / TR [4] | material found in SLO cytoplasmic extracts (HPLC) [7] | further results
GPSQPTYPGDDAPVEDLIRFYNDLQQYLNVVTRHRYC^FLU-NH2 (GPSQPTYPGDDAPVEDLIRFYNDLQQYLNVVTRHRYC(fluorescein)-NH2) [aPPF] | low fluorescence | – | – | – | – | – | – | – | –
K^DexGRKKRRQRRRPPQY-NH2 (K(dexamethasone)GRKKRRQRRRPPQY-NH2) [TatDex] | – | completely blocked the increase in TR | 2.85±0.10 | reduced, to background levels | reduced, to background levels | reduced, to background levels | blocked the ability | – | eGFP expression ([2]; 1 μM, lysates): significant eGFP expression; increase in TR blocked by wortmannin ([3]; 200 nM wortmannin, 1 μM): 72%; TR (GR-mCherry), Rab5Q79L-GFP expressing cells ([4]; 1 μM, 30 min, Rab5Q79L-GFP): 1.26±0.03; TR (GR-mCherry), Rab5-GFP expressing cells ([4]; 1 μM, 30 min, wild-type Rab5-GFP): 1.57±0.04; translocation ratio (TR), GR★-GFP ([5]; 1 μM, 30 min, Saos-2(GIGT) cells): 2.28±0.24
K^DexWYSCNVCGKAFVLSRHLNRHLRVHRRAT-NH2 (K(dexamethasone)WYSCNVCGKAFVLSRHLNRHLRVHRRAT-NH2; cysteine pairing not given here) [ZF5.3Dex] | – | reduced to background levels | 2.4±0.09 | reduced to background levels | reduced to background levels | reduced to background levels | – | – | EC50 fold lower than that of ZFN1-4Dex [2]: 70-80 fold; EC50 fold lower than that of wtZFDex [2]: 100 fold; EC50 ([2]; Dex-labeled peptides, 24 h, lysates, read-out: EC50 (eGFP expression, GIGI)): 1.4 nM; GR★-GFP translocation (GIGT) compared with wtZF and all four ZFN domains ([5]; GIGT): significantly higher levels; cells expressing GR★-GFP with significant translocation ratios ([5]; GIGT): greater than 99%
K^RhodGPSQPTYPGDDAPVEDLIRFYNDLQQYLNVVTRHRY-NH2 (K(rhodamine)GPSQPTYPGDDAPVEDLIRFYNDLQQYLNVVTRHRY-NH2; reading uncertain; also: printed as K^RhodGPSQPTYPGDDAPVEDLIRFYNDLQQYLNVVTRHRY-NH2) [aPPR] | low fluorescence | – | – | – | – | – | – | little to no fluorescent material; also recorded: little or no aPPR is observed | intracellular red fluorescent signal [6]: little or no red fluorescent signal
K^RhodWYSCNVCGKAFVLSRHLNRHLRVHRRAT-NH2 (K(Rhod)WYSCNVCGKAFVLSRHLNRHLRVHRRAT-NH2; cysteine pairing not given here; reading uncertain; also: printed as KRhodWYSCNVCGKAFVLSRHLNRHLRVHRRAT-NH2) [ZF5.3R] | – | – | – | – | – | – | unaffected | can be recovered from cytosolic extracts; also recorded: a single peak with the same retention time as the starting material | degradation by cathepsin B (HPLC) [8]: little or no degradation; effect of wortmannin on TR ([3]; wortmannin treatment): unaffected
